In patent US6087493A, “Porphyrin compounds as telomerase inhibitors” (Regents of the University of Texas System, priority 1998, dated 2000):

Legend:
[1] = 25 μM; Table 9
human telomerase = human telomerase (Homo sapiens, UniProt O14746); assay: Telomerase inhibition, primer extension assay in HeLa cell extract; type: biochemical; conditions: Table 15; concentration fixed at 25 μM; read-out: % Inhibition of telomerase
human telomerase, sequence (O14746 whole entry): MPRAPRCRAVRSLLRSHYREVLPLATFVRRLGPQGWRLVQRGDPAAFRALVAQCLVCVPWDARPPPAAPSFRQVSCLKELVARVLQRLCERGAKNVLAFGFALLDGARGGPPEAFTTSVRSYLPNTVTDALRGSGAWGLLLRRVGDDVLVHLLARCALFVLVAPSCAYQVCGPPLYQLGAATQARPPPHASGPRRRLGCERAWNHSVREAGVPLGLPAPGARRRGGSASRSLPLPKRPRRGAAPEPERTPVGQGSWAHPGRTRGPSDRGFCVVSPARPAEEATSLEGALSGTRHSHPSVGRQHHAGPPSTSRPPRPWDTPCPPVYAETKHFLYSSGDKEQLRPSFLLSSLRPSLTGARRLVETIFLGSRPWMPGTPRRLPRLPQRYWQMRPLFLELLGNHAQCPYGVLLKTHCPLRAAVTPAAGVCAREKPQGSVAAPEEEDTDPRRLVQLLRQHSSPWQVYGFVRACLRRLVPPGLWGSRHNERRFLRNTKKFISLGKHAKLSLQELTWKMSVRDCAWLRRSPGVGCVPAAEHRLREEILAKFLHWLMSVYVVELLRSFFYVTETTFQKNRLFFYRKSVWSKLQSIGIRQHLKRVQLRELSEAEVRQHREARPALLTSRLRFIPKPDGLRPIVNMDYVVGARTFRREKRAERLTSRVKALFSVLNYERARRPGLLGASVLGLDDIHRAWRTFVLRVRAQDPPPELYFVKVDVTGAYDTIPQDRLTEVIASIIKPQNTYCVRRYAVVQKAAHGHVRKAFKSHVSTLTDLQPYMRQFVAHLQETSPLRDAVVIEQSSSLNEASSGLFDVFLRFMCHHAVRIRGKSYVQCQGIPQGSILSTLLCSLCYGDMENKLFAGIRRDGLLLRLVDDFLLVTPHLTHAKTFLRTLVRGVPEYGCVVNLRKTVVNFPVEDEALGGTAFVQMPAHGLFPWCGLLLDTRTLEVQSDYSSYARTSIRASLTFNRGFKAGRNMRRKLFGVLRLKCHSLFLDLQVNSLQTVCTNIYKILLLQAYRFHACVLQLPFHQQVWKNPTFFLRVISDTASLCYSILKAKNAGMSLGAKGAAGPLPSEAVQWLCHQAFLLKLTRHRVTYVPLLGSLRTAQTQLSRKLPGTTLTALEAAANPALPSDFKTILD

| Compound | % insoluble remark (solubility) [1] | inhibition at 25 µM (human telomerase) |
| --- | --- | --- |
| O=[N+]([O-])c1cccc(-c2c3nc(cc4ccc([nH]4)c(-c4cccc([N+](=O)[O-])c4)c4nc(cc5ccc2[nH]5)C=C4)C=C3)c1 [Compound D16] | insoluble | – |
| O=[N+]([O-])c1cc(-c2c3nc(c(-c4ccc(Cl)c([N+](=O)[O-])c4)c4ccc([nH]4)c(-c4ccc(Cl)c([N+](=O)[O-])c4)c4nc(c(-c5ccc(Cl)c([N+](=O)[O-])c5)c5ccc2[nH]5)C=C4)C=C3)ccc1Cl [Compound D13, 5,10,15,20-tetra-(4-chloro-3-nitrophenyl)porphine] | insoluble | – |
| CCOC(=O)CCc1c(C)c2cc3nc(cc4[nH]c(cc5nc(cc1[nH]2)C(C)=C5CC)c(C)c4CC)C(C)=C3C(=O)OCC [Compound H25] | – | 18% |
